# In patent publication US4666934A, “Prostaglandin analogs” (The Upjohn Company, priority 1985, dated 1987):
# Where a name gives a salt, the structure may show the parent alone.
# Tests used:
# Type in all cases: physicochemical
# [1] = Specific gravity (volume displacement, pycnometer); details: 20° C., acetonitrile
# Method: To obtain specific gravity data approximate densities were obtained using a volume displacement procedure. To a 5 ml weighed pycnometer was added 200-300 mg of salt and acetonitrile added to fill. The salt suspensions were sonicated to remove entrapped air and equilibrated to 20° C. in a water bath. The salt densities were estimated by standard methods of calculation.
# [2] = Solid-state stability; details: for Solid state stability (degradation): 2 months at 33° C., 87600 min; for Solid-state stability (visual observation): 75% R.H., 30°, same = as at day 0
# Method: (§1) The solid-state stability studies were performed as follows. Approximately 10-15 mg of the free acid or a salt was placed in either clear glass vials or amber vials wrapped in aluminum foil and stored under various conditions as listed below:
# (a) Refrigerated at about 4° C. (dark).
# (b) High Intensity Light Box at about 33° C. and relative humidity <15%. (Light Box contained 6-15 watt fluorescent bulbs 41/2 inches above the powder surface.) Sample vials were placed on their sides with powder spread evenly on the vial wall.
# (c) 30° C./75% relative humidity/dark-vials were capped loosely.
# (§2) At various times, 1-1.5 mg samples were dissolved in methanol, diluted to a prescribed volume with water, and analyzed by high pressure liquid chromatography versus reference standard of the free acid stored at -20° C. Chromatographic conditions were similar to those described previously.
# [3] = Water solubility; details: for Water solubility: in words
# [4] = Trichlorotrifluoroethane solubility
# Method: The solubility of the compounds in trichlorotrifluoroethane, a high molecular weight fluorochlorinated alkane liquid propellant, was determined as follows. Suspensions of each compound were prepared at concentrations of ~1 mg/ml in trichlorotrifluoroethane in 30 ml glass vials sealed using polytetrafluoroethylene lined caps. These vials were wrapped with aluminum foil and shaken at ~25° C. After 26 days shaking the samples were filtered. Three successive 5 ml fractions were collected from the filter and analyzed to test for adsorption. (No adsorption was observed.)
# The 5 ml samples were transferred to 5 ml volumetric flasks and solvent was evaporated under nitrogen. The residue was redissolved in 1 ml methanol and diluted to 5 ml with 30% CH3 CN. Samples were assayed by high pressure liquid chromatography.
# [5] = Characterizability (passes profile; moisture content after air equilibration); details: for Characterizability (passes profile): Table I
# [6] = Stability suspended in trichlorotrifluoroethane; details: dark, 30°
# Method: as §1
# (d) Suspended in […] and shaken continuously for 26 days.
# as §2
structure (smiles),measurement,setting,value
"CCCCC[C@H](O)/C=C/[C@@H]1c2cc(CCCCC(=O)O)n(-c3ccccc3)c2C[C@H]1O [Potassium Salt, 6,9-Deepoxy-6,9-(phenylimino)-Δ6,8-prostaglandin I1, potassium salt]",Specific gravity,[1]; potassium salt,1.20
same,Solid state stability (degradation),[2]; potassium salt,< 2%
same,Solid-state stability,"[2]; Dark, 4°, 0 days, potassium salt",100% of Theory
same,Solid-state stability,"[2]; Dark, 33°, 0 days, potassium salt",100% of Theory
same,Solid-state stability,"[2]; Dark, 33°, 19 days, potassium salt, 27360 min",100% of Theory
same,Solid-state stability,"[2]; Dark, 33°, 40 days, potassium salt, 57600 min",100% of Theory
same,Solid-state stability,"[2]; Dark, 33°, 66 days, potassium salt, 95040 min",100% of Theory
same,Solid-state stability,"[2]; Dark, 33°, 289 days, potassium salt, 416160 min",96% of Theory
same,Solid-state stability,"[2]; Dark, 33°, 405 days, potassium salt, 583200 min",96% of Theory
same,Solid-state stability (visual observation),"[2]; Dark, 19 days, potassium salt",glass
same,Solid-state stability,"[2]; High intensity light, 33°, relative humidity <15%, 0 days, potassium salt",100% of Theory
same,Solid-state stability,"[2]; High intensity light, 33°, relative humidity <15%, 19 days, potassium salt, 27360 min",48% of Theory
same,Solid-state stability,"[2]; in words, over the free acid or the sodium salt",improved solid-state stability over the free acid or the sodium salt
same,Rank order of stability,"[2]; protected from light, 33°",potassium salt>free acid>sodium salt
same,remaining at 1584 h,"[2]; solid state, Dark, 4°, 66 days",102%
same,remaining at 4536 h,"[2]; solid state, Dark, 4°, 189 days",101%
same,remaining at 2400 h,"[2]; solid state, Dark, 33°, 100 days",97%
same,remaining at 5184 h,"[2]; solid state, Dark, 33°, 216 days",98%
same,Water solubility,"[3]; listed as potassium salt, potassium salt",high water solubility
same,Water solubility,[3]; potassium salt,Soluble
same,Solubility in fluorinated and fluorochlorinated liquified propellants,"[4]; as compared to the free acid, in words",low solubility in fluorinated and fluorochlorinated liquified propellants
same,Trichlorotrifluoroethane solubility,"[4]; ~25° C., 26 days shaking, potassium salt, 37440 min",0.43 µg/mL
same,Characterizability (passes profile),[5]; potassium salt,Pass
same,moisture content after air equilibration,[5]; potassium salt,.42 % H2O
same,Stability in trichlorotrifluoroethane suspension,"[6]; 26 days, potassium salt, 37440 min",100% of Theory
"CCCCC[C@H](O)/C=C/[C@@H]1c2cc(CCCCC(=O)O)n(-c3ccccc3)c2C[C@H]1O [Free Acid, 6,9-deepoxy-6,9-(phenylimino)-Δ6,8-prostaglandin I1, reference compound]",Solid state stability (degradation),[2],> 10%
same,Solid-state stability,"[2]; Dark, 33°, 0 days",100% of Theory
same,Solid-state stability,"[2]; Dark, 33°, 19 days, 27360 min",98% of Theory
same,Solid-state stability,"[2]; Dark, 33°, 189 days, 272160 min",65% of Theory
same,Solid-state stability,"[2]; Dark, 33°, 289 days, 416160 min",46% of Theory
same,Solid-state stability,"[2]; Dark, 33°, 405 days, 583200 min",19% of Theory
same,Solid-state stability (visual observation),"[2]; Dark, 19 days",same
same,Solid-state stability,"[2]; High intensity light, 33°, relative humidity <15%, 0 days",100% of Theory
same,Solid-state stability,"[2]; High intensity light, 33°, relative humidity <15%, 19 days, 27360 min",55% of Theory
same,remaining at 960 h,"[2]; solid state, Dark, 33°, 40 days",94%
same,remaining at 1584 h,"[2]; solid state, Dark, 33°, 66 days",89%
same,solubility,"[3]; water, Table I, numeric",1 µg/mL
same,solubility at 624 h,"[4]; trichlorotrifluoroethane, organic solvent or mixture, ~25° C., 26 days shaking",0.38 µg/mL
same,Characterizability (passes profile),[5],Pass
same,Stability in trichlorotrifluoroethane suspension,[6]; 0 days,100% of Theory
same,remaining at 624 h,"[6]; trichlorotrifluoroethane, 26 days, read-out: Stability in trichlorotrifluoroethane suspension",94%
"CCCCC[C@H](O)/C=C/[C@@H]1c2cc(CCCCC(=O)O)n(-c3ccccc3)c2C[C@H]1O [Sodium Salt, 6,9-Deepoxy-6,9-(phenylimino)-Δ6,8-prostaglandin I1, sodium salt]",Specific gravity,[1]; sodium salt,1.18
same,Solid state stability (degradation),[2]; sodium salt,> 50%
same,Solid-state stability,"[2]; Dark, 4°, 0 days, sodium salt",101% of Theory
same,Solid-state stability,"[2]; Dark, 33°, 0 days, sodium salt",101% of Theory
same,Solid-state stability,"[2]; Dark, 33°, 19 days, sodium salt, 27360 min",61% of Theory
same,Solid-state stability (visual observation),"[2]; Dark, 19 days, sodium salt",same
same,Solid-state stability,"[2]; High intensity light, 33°, relative humidity <15%, 0 days, sodium salt",101% of Theory
same,Solid-state stability,"[2]; High intensity light, 33°, relative humidity <15%, 19 days, sodium salt, 27360 min",3% of Theory
same,remaining at 456 h,"[2]; solid state, Dark, 4°, 19 days",87%
same,remaining at 1104 h,"[2]; solid state, Dark, 4°, 46 days",77%
same,Water solubility,[3]; sodium salt,Soluble
same,Characterizability (passes profile),[5]; sodium salt,Initial analysis acceptable but later assays (HPLC) unacceptable
same,moisture content after air equilibration,[5]; sodium salt,.82 % H2O
